Laboratory results: patent publication US11767341B2, “Lincosamide antibiotics and uses thereof” (President and Fellows of Harvard College, priority 2017, dated 2023)
≈ marks a conversion by molar mass, not a printed value.

What was measured:
Experiment in all cases: MIC determination
Assay type in all cases: cell-based
[1] = tested on: S. aureus UNT-146, MP-620, TP 506 (ermA); details: Staphylococcus aureus; S. aureus UNT-146, MP-620, TP 506 (ermA); read-out: MIC
[2] = tested on: S. pyogenes UNT-014, MP-625 MacRes; details: Streptococcus pyogenes; S. pyogenes UNT-014, MP-625 MacRes; read-out: MIC
[3] = tested on: S. aureus BAA-1556 (USA 300); details: Staphylococcus aureus; S. aureus BAA-1556 (USA 300); read-out: MIC
[4] = tested on: S. aureus UNT-120, MP-619, NRS22 (USA 600, GISA); details: Staphylococcus aureus; S. aureus UNT-120, MP-619, NRS22 (USA 600, GISA); read-out: MIC
E. coli GUEST131 (NDM-1) = details: Escherichia coli
P. aeruginosa ATCC 27853 = details: Pseudomonas aeruginosa, ATCC27853; P. aeruginosa ATCC 27853; read-out: MIC
H. influenzae ATCC 49247 = details: Haemophilus influenzae, ATCC49247; H. influenzae ATCC 49247; read-out: MIC
E. faecalis ATCC 29212 = details: Enterococcus faecalis, ATCC29212, read-out: MIC
S. pyogenes ATCC 19615 = details: Streptococcus pyogenes, ATCC19615; S. pyogenes ATCC 19615; read-out: MIC
[5] = tested on: S. pneumoniae TP 1579 (ermB + tet(M, O)); details: Streptococcus pneumoniae
[6] = tested on: S. pneumoniae TP 1537 (ermB + mefA); details: Streptococcus pneumoniae; S. pneumoniae TP 1537 (ermB + mefA); read-out: MIC
S. pneumoniae ATCC 49619 = details: Streptococcus pneumoniae, ATCC49619; S. pneumoniae ATCC 49619; read-out: MIC
K. pneumoniae ATCC 10031 = details: Klebsiella pneumoniae, ATCC10031; K. pneumoniae ATCC 10031; read-out: MIC
[7] = tested on: K. pneumoniae IHMA 658692; KPC-2; details: Klebsiella pneumoniae; K. pneumoniae IHMA 658692; KPC-2; read-out: MIC
[8] = tested on: S. pneumoniae UNT-039, MP-627, TP1517 (mefA); details: Streptococcus pneumoniae
[9] = tested on: S. pneumoniae UNT-038, MP-626, TP 160 (mefA); details: Streptococcus pneumoniae
S. aureus ATCC 29213 = details: Staphylococcus aureus, ATCC29213, S. aureus ATCC 29213; read-out: MIC
E. coli ATCC 25922 = details: Escherichia coli, ATCC25922, E. coli ATCC 25922; read-out: MIC
[10] = tested on: S. aureus UNT96, NRS710, MP-618 (USA 100, Erythro >8); details: Staphylococcus aureus; S. aureus UNT96, NRS710, MP-618 (USA 100, Erythro >8); read-out: MIC
E. faecalis UNT-047 VRE = details: Enterococcus faecalis; E. faecalis UNT-047 VRE; read-out: MIC

`CSC1O[C@H]([C@H](NC(=O)[C@H]2NC[C@@H]3C=CCO[C@@H]23)[C@H](C)Cl)C(O)[C@@H](O)[C@H]1O` (stereo partly drawn) [FSA-24039] was tested, and the MIC [1] was over 32 µg/mL, the MIC [2] was 0.125 µg/mL (≈ 0.296 µM) and the MIC [3] was over 32 µg/mL. For the same compound, the MIC [4] was over 32 µg/mL, the MIC (E. coli GUEST131 (NDM-1)) was over 32 µg/mL and the MIC (P. aeruginosa ATCC 27853) was over 32 µg/mL. The MIC (H. influenzae ATCC 49247) was 32 µg/mL (≈ 75.7 µM), the MIC (E. faecalis ATCC 29212) was 32 µg/mL (≈ 75.7 µM) and the MIC (S. pyogenes ATCC 19615) was 0.125 µg/mL (≈ 0.296 µM). It also gave an MIC [5] of 0.0625 µg/mL (≈ 0.148 µM), an MIC [6] of over 32 µg/mL and an MIC (S. pneumoniae ATCC 49619) of 0.0625 µg/mL (≈ 0.148 µM). For the same compound, the MIC (K. pneumoniae ATCC 10031) was over 32 µg/mL, the MIC [7] was over 32 µg/mL and the MIC [8] was at most 0.0313 µg/mL. For the same compound, the MIC [9] was 0.125 µg/mL (≈ 0.296 µM), the MIC (S. aureus ATCC 29213) was 1 µg/mL (≈ 2.36 µM) and the MIC (E. coli ATCC 25922) was over 32 µg/mL. It also gave an MIC [10] of over 32 µg/mL and an MIC (E. faecalis UNT-047 VRE) of over 32 µg/mL.

With `CSC1O[C@H]([C@H](NC(=O)[C@H]2NC[C@@H]3CCCO[C@H]32)[C@H](C)Cl)C(O)[C@@H](O)[C@H]1O` (stereo partly drawn) [FSA-24041] the MIC [1] was over 32 µg/mL, the MIC [2] was 0.0625 µg/mL (≈ 0.147 µM) and the MIC [3] was over 32 µg/mL. For the same compound, the MIC [4] was over 32 µg/mL, the MIC (E. coli GUEST131 (NDM-1)) was over 32 µg/mL and the MIC (P. aeruginosa ATCC 27853) was over 32 µg/mL. It also gave an MIC (H. influenzae ATCC 49247) of 32 µg/mL (≈ 75.3 µM), an MIC (E. faecalis ATCC 29212) of 32 µg/mL (≈ 75.3 µM) and an MIC (S. pyogenes ATCC 19615) of at most 0.0313 µg/mL. It also gave an MIC [5] of at most 0.0313 µg/mL, an MIC [6] of over 32 µg/mL and an MIC (S. pneumoniae ATCC 49619) of 0.0625 µg/mL (≈ 0.147 µM). It also gave an MIC (K. pneumoniae ATCC 10031) of over 32 µg/mL, an MIC [7] of over 32 µg/mL and an MIC [8] of at most 0.0313 µg/mL. For the same compound, the MIC [9] was 0.0625 µg/mL (≈ 0.147 µM), the MIC (S. aureus ATCC 29213) was 0.5 µg/mL (≈ 1.18 µM) and the MIC (E. coli ATCC 25922) was over 32 µg/mL. For the same compound, the MIC [10] was over 32 µg/mL and the MIC (E. faecalis UNT-047 VRE) was over 32 µg/mL.

Compound `CSC1O[C@H]([C@H](NC(=O)[C@@H]2[C@@H]3OCCCC[C@H]3CN2C)[C@H](C)Cl)C(O)C(O)[C@H]1O` (stereo partly drawn) [FSA-24040] has an MIC [1] of over 32 µg/mL, an MIC [2] of at most 0.0313 µg/mL and an MIC [3] of over 32 µg/mL. For the same compound, the MIC [4] was over 32 µg/mL, the MIC (E. coli GUEST131 (NDM-1)) was over 32 µg/mL and the MIC (P. aeruginosa ATCC 27853) was over 32 µg/mL. It also gave an MIC (H. influenzae ATCC 49247) of 8 µg/mL (≈ 17.7 µM), an MIC (E. faecalis ATCC 29212) of 32 µg/mL (≈ 70.6 µM) and an MIC (S. pyogenes ATCC 19615) of at most 0.0313 µg/mL. It also gave an MIC [5] of at most 0.0313 µg/mL, an MIC [6] of over 32 µg/mL and an MIC (S. pneumoniae ATCC 49619) of at most 0.0313 µg/mL. It also gave an MIC (K. pneumoniae ATCC 10031) of 8 µg/mL (≈ 17.7 µM), an MIC [7] of over 32 µg/mL and an MIC [8] of at most 0.0313 µg/mL. It also gave an MIC [9] of at most 0.0313 µg/mL, an MIC (S. aureus ATCC 29213) of at most 0.0313 µg/mL and an MIC (E. coli ATCC 25922) of over 32 µg/mL. It also gave an MIC [10] of over 32 µg/mL and an MIC (E. faecalis UNT-047 VRE) of over 32 µg/mL.
